According to patent publication US11628162B2, “Methods of treating cancer with an FGFR inhibitor” (Incyte Corporation, priority 2019, dated 2023):
“And” between values parts separate entries of the source, which are not always exact repeats. Identical values can stand only once. “Also recorded” adds a separate entry of the source. Like-named read-outs stand apart in the source and are kept apart here. One block for each molecule: values may come before it.

Columns and labels:
[1] = system: human liver microsomes; assay: Metabolism of pemigatinib in human liver microsomes with selective chemical CYP inhibitors; conditions: pemigatinib 1 μM, human liver microsomes 1 mg/mL, NADPH; no inhibitor or furafylline 10, ticlopidine 2, quercetin 10, sulfaphenazole 10, tranylcypromine 20, quinidine 1, ketoconazole 2 μM
Experimental: (§3) Aliquots were taken at 0, 10, 20, and 30 minutes and denatured with methanol. After centrifugation to remove the denatured proteins, the resulting supernatants were analyzed by LC/MS.

[2] = system: human liver microsomes; conditions: 0.5 h, 1 μM, pH 7.4
Experimental: as §3

[3] = human, in vivo
[4] = Phase 1 drug-drug interaction study: safety and tolerability (TEAEs); conditions: for Safety and tolerability (overall conclusion): healthy male and female volunteers
Experimental: In addition, this study also evaluates the safety and tolerability of pemigatinib when administered alone or in combination with itraconazole or rifampin. Safety and tolerability is assessed by monitoring adverse events, vital signs, physical examinations, 12-lead ECGs, and clinical laboratory blood and urine sample assessments. Pharmacokinetic endpoints include tmax, AUC0-t, AUC0-∞, t1/2, CL/F, and Vz/F.
Vital signs (oral temperature; respiratory rate; automated, seated blood pressure; and pulse) are obtained at screening, check-in, and follow-up; at 0 hour (predose) on Days 1 and 8; and at approximately 1, 2, 3, 6, and 24 hours after the morning dose on Day 4 and Day 9. Clinical safety laboratory assessments are performed at screening; on Days −1, 2, 5, 9, 10, and 11; and at follow-up. A serum pregnancy is obtained at screening and follow-up. A urine pregnancy test is obtained at check-in for each visit for all women. On Day 8, a 12-lead ECG is performed predose, 2 hours postdose, and approximately 24 hours postdose. On other days, 12-lead ECGs are performed only at predose.
Vital signs (oral temperature; respiratory rate; automated, seated blood pressure; and pulse) are obtained at screening, check-in and follow-up; at 0 hour (predose) on Days 1 and 11; and at approximately 1, 2, 3, 6, and 24 hours after the morning dose on Days 4, 10, and 12. Clinical safety laboratory assessments are performed at screening; on Days −1, 2, 8, and 13; and at follow-up. A serum pregnancy test is obtained at screening and follow-up. A urine pregnancy test is obtained at check-in for each visit for all women. On Day 11, a 12-lead ECG is performed predose, 2 hours postdose, and approximately 24 hours postdose. On other days, 12-lead ECGs is performed only at predose.

[5] = Phase 1 drug-drug interaction study: single-dose pemigatinib PK alone or with itraconazole or rifampin; conditions: for Tmax: median
[6] = target: T1, CYP1A2 (Homo sapiens, UniProt P05177); assay: In vitro metabolism of pemigatinib by recombinant human CYP1A2; format: in vitro ADME
T1 sequence (P05177 1-516): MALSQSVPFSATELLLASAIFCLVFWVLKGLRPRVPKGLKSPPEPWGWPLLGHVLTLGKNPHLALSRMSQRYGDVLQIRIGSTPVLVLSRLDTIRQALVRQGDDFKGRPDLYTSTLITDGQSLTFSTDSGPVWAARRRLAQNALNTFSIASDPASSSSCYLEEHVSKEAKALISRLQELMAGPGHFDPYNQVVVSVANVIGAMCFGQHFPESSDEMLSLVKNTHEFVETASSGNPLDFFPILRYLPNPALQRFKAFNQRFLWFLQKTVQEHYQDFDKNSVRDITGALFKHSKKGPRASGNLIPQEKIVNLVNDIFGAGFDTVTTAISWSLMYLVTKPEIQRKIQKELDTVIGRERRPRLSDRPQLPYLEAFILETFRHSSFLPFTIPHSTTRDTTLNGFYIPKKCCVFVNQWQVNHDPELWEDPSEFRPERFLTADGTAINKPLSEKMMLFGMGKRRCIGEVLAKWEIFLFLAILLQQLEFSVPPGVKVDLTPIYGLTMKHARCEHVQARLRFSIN
Experimental: (§1) In vitro metabolism studies were conducted to determine the human cytochrome P450 (CYP) isozyme(s) capable of metabolizing pemigatinib.
(§2) In vitro metabolism studies were conducted to determine the individual human recombinant CYP isozymes capable of metabolizing pemigatinib (1 μM) and included CYP1A2, CYP2B6, CYP2C8, CYP2C9, CYP2C19, CYP2D6, or CYP3A4.

[7] = target: T2, CYP2B6 (Homo sapiens, UniProt P20813); assay: In vitro metabolism of pemigatinib by recombinant human CYP2B6; format: in vitro ADME
T2 sequence (P20813 1-491): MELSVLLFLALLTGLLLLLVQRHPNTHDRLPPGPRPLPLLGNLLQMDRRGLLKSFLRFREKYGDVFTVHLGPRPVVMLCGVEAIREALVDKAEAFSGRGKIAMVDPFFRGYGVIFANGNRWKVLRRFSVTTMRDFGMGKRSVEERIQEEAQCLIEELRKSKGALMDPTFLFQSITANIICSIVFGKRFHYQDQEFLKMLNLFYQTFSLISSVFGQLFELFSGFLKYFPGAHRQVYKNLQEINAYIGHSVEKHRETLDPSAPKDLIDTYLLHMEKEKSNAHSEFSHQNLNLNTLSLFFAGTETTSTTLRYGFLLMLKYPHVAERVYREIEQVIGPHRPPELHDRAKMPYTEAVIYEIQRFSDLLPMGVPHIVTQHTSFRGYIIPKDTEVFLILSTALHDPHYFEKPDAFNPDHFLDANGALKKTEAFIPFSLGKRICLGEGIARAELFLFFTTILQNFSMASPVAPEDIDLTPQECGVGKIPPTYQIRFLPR
Experimental: as §1, §2

[8] = target: T3, CYP2C8 (Homo sapiens, UniProt P10632); assay: In vitro metabolism of pemigatinib by recombinant human CYP2C8; format: in vitro ADME
T3 sequence (P10632 1-490): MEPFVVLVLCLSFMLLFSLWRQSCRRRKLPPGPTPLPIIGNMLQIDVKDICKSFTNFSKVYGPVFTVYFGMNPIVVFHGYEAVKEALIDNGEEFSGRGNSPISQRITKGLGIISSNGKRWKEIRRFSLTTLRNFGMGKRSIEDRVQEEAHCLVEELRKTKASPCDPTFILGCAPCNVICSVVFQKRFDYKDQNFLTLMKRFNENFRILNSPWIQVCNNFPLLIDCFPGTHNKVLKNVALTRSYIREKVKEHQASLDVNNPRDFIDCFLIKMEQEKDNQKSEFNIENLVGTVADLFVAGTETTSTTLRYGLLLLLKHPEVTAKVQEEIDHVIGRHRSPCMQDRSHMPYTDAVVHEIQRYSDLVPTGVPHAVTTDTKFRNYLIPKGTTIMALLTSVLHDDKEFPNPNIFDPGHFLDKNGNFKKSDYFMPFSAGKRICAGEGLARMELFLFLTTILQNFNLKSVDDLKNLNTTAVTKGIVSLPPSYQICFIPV
Experimental: as §1, §2

[9] = target: CYP2C9 (Homo sapiens, UniProt P11712); assay: In vitro metabolism of pemigatinib by recombinant human CYP2C9; format: in vitro ADME
Experimental: as §1, §2

[10] = target: CYP2C19 (Homo sapiens, UniProt P33261); assay: In vitro metabolism of pemigatinib by recombinant human CYP2C19; format: in vitro ADME
Experimental: as §1, §2

[11] = target: CYP2D6 (Homo sapiens, UniProt P10635); assay: In vitro metabolism of pemigatinib by recombinant human CYP2D6; format: in vitro ADME
Experimental: as §1, §2

[12] = target: T4, CYP3A4 (Homo sapiens, UniProt P08684); assay: In vitro metabolism of pemigatinib by recombinant human CYP3A4; format: in vitro ADME
T4 construct: host or cells: in silico (Simcyp virtual population); observed values come from healthy volunteers
Experimental: as §1, §2

[13] = Mass balance and metabolite identification (human ADME) data; format: in vivo
[14] = Phase I dose escalation and dose expansion study, observed PK in cancer patients; format: in vivo; conditions: human, plasma, geometric mean; for AUC: read-out: Observed AUCss; for Cmax: read-out: Observed Cmax, ss
Experimental: The pemigatinib PBPK model was developed from healthy volunteer was used to describe cancer patients PK data from phase I dose escalation and dose expansion study (6-20 mg). The model was used to predict pemigatinib plasma concentration-time curves in cancer patients after multiple oral dose of 6, 9, 13.5 and 20 mg pemigatinib because only one patient was dosed for 1, 2 and 4 mg, respectively.

[15] = Permeability of pemigatinib (statement, no method given); format: in vitro ADME
[16] = clinical; conditions: human, plasma
[17] = Cohort 2: 13.5 mg pemigatinib alone or with rifampin 600 mg QD, geometric mean
[18] = Cohort 2: 13.5 mg pemigatinib alone or with rifampin 600 mg QD, mean ± SD
[19] = Cohort 2: 13.5 mg pemigatinib alone or with rifampin 600 mg QD
[20] = Cohort 1 (n=18): pemigatinib 4.5 mg alone and with itraconazole
[21] = Cohort 1: 4.5 mg pemigatinib alone or with itraconazole 200 mg QD, geometric mean
[22] = Cohort 1: 4.5 mg pemigatinib alone or with itraconazole 200 mg QD, mean ± SD
[23] = pemigatinib with/without itraconazole, geometric mean

T4 sequence (P08684 whole entry): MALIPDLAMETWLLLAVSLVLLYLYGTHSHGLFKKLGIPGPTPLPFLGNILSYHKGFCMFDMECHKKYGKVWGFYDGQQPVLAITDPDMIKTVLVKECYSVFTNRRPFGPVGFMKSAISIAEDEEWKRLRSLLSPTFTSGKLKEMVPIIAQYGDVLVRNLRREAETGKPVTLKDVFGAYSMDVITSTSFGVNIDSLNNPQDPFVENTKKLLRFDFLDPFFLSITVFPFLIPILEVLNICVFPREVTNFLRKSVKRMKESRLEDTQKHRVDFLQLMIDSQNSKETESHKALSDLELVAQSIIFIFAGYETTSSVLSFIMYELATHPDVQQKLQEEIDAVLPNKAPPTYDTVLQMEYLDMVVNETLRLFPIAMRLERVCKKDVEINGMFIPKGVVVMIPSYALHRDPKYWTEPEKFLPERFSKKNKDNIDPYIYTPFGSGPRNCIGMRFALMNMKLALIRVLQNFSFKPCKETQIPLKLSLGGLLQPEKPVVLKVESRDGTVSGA
Chain of CYP2C19 (P33261 whole entry): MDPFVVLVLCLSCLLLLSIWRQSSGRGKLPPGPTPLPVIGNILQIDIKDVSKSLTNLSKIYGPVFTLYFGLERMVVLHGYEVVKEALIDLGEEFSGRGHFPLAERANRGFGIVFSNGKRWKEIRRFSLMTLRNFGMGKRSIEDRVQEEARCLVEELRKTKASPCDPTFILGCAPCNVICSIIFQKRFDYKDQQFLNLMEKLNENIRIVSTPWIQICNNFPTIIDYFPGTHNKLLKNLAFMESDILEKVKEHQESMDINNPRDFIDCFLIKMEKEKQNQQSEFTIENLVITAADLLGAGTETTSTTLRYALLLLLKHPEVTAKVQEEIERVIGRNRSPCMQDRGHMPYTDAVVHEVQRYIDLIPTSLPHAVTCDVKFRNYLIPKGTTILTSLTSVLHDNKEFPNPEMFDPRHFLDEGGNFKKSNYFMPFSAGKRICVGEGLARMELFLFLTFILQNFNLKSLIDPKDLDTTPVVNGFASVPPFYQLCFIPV
Chain of CYP2C9 (P11712 whole entry): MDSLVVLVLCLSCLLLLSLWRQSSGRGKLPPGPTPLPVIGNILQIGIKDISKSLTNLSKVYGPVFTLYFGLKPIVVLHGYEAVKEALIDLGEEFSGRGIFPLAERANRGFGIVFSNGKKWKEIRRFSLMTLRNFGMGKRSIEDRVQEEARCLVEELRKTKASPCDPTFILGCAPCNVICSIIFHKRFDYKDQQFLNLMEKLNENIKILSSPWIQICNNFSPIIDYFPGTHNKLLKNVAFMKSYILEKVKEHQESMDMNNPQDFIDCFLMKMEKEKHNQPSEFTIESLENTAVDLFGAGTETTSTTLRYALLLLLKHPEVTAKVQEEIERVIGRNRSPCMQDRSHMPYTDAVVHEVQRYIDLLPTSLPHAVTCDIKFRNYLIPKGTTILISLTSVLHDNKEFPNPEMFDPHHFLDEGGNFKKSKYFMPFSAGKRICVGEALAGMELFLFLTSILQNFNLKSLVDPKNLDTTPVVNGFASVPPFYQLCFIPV
Chain of CYP2D6 (P10635 whole entry): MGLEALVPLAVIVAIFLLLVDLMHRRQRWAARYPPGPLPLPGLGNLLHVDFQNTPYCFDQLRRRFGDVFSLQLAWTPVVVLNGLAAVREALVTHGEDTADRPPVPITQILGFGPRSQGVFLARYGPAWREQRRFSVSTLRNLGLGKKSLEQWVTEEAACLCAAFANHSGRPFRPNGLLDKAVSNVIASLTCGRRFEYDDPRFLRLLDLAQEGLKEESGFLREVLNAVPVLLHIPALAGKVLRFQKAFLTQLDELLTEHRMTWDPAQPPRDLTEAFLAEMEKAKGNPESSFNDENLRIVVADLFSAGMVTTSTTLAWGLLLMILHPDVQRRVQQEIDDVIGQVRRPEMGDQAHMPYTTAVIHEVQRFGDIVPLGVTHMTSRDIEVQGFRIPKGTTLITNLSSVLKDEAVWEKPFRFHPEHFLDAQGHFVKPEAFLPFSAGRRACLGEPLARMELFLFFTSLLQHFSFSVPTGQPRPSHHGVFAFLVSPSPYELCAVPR

Compound: N[C@@H]1C[C@H]1c1ccccc1 (racemic) [Tranylcypromine]
Mean Percent of Pemigatinib Remaining After 30-Minute Incubation (N = 3) [1]: 73 ± 2%

Mean Percent of Pemigatinib Remaining After 30-Minute Incubation (N = 3) [2]: 67 ± 1%
Compound: Cc1nc2c([nH]1)c(=O)n(C)c(=O)n2Cc1ccco1 [Furafylline]

Pemigatinib AUC Ratio, Observed ([3]; po): 1.88
Pemigatinib Cmax Ratio, Observed ([3]; po): 1.17
Compound: CCC(C)n1ncn(-c2ccc(N3CCN(c4ccc(OCC5COC(Cn6cncn6)(c6ccc(Cl)cc6Cl)O5)cc4)CC3)cc2)c1=O (centres unmarked) [Itraconazole, reference compound]

Compound: CCN1C(=O)N(c2c(F)c(OC)cc(OC)c2F)Cc2cnc3[nH]c(CN4CCOCC4)cc3c21 [Pemigatinib + rifampin]
Decrease in half-life of pemigatinib following rifampin coadministration [3]: 63%
Safety and tolerability (overall conclusion) [4]: safe and generally well tolerated
AUC0-t [5, 17]: 0.28 µM·h
AUC0-∞ [5, 17]: 0.292 µM·h
CL/F [5, 17]: 94.7 L/h
Cmax [5, 17]: 66.9 nM
t1/2 [5, 17]: 4.7 h and 4.69 h
AUC0-t [5, 18]: 0.289 ± 0.0749 µM·h
AUC0-∞ [5, 18]: 0.301 ± 0.0755 µM·h
CL/F [5, 18]: 97.5 ± 23.8 L/h
t1/2 [5, 18]: 5.05 ± 2.76 h
Tmax [5, 19]: 1.00 h
Cmax ([5]; Cohort 2: healthy volunteers n=18, single oral 13.5 mg pemigatinib fasted, alone or with rifampin 600 mg QD, mean ± SD): 69.7 ± 20 nM
Change in pemigatinib exposure on coadministration ([5]; with potent CYP3A4 inhibitor or inducer, healthy volunteers): clinically significant decrease

Compound: CCN1C(=O)N(c2c(F)c(OC)cc(OC)c2F)Cc2cnc3[nH]c(CN4CCOCC4)cc3c21 [Pemigatinib, 3-(2,6-difluoro-3,5-dimethoxyphenyl)-1-ethyl-8-(morpholin-4-ylmethyl)-1,3,4,7-tetrahydro-2H-pyrrolo[3′,2′: 5,6]pyrido[4,3-d]pyrimidin-2-one]
Extent of in vitro metabolism by CYP1A2 (in words) [6]: negligible
Average Percent (N = 2) of Pemigatinib Remaining vs Control (30 mins) ([6]; recombinant CYP1A2, pemigatinib 1 μM, 30 min): 92%
Extent of in vitro metabolism by CYP2B6 (in words) [7]: negligible
Average Percent (N = 2) of Pemigatinib Remaining vs Control (30 mins) ([7]; recombinant CYP2B6, pemigatinib 1 μM, 30 min): 96%
Extent of in vitro metabolism by CYP2C8 (in words) [8]: negligible
Average Percent (N = 2) of Pemigatinib Remaining vs Control (30 mins) ([8]; recombinant CYP2C8, pemigatinib 1 μM, 30 min): 94%
Extent of in vitro metabolism by CYP2C9 (in words) [9]: negligible
Average Percent (N = 2) of Pemigatinib Remaining vs Control (30 mins) ([9]; recombinant CYP2C9, pemigatinib 1 μM, 30 min): 88%
Extent of in vitro metabolism by CYP2C19 (in words) [10]: negligible
Average Percent (N = 2) of Pemigatinib Remaining vs Control (30 mins) ([10]; recombinant CYP2C19, pemigatinib 1 μM, 30 min): 95%
Extent of in vitro metabolism by CYP2D6 (in words) [11]: negligible
Average Percent (N = 2) of Pemigatinib Remaining vs Control (30 mins) ([11]; recombinant CYP2D6, pemigatinib 1 μM, 30 min): 94%
Extent of in vitro metabolism by CYP3A4 (in words) [12]: predominantly metabolized; also recorded: metabolized to the greatest extent
Average Percent (N = 2) of Pemigatinib Remaining vs Control (30 mins) ([12]; recombinant CYP3A4, pemigatinib 1 μM, 30 min): 14%
Oral absorption of pemigatinib (in words) ([13]; mass balance and metabolite identification data): nearly complete
Renal excretion (unchanged pemigatinib excreted in urine) ([13]; mass balance data): ~1.0 % of the dose
Unchanged pemigatinib recovered in feces ([13]; mass balance data): 1.3 % of the administered radioactive dose
AUC ([14]; multiple oral dose 6 mg): 1.11 µM·h
Cmax ([14]; multiple oral dose 6 mg): 101 nM
AUC ([14]; multiple oral dose 9 mg): 1.51 µM·h
Cmax ([14]; multiple oral dose 9 mg): 161 nM
AUC ([14]; multiple oral dose 13.5 mg): 2.6 µM·h
Cmax ([14]; multiple oral dose 13.5 mg): 175 nM
AUC ([14]; multiple oral dose 20 mg): 4.18 µM·h
Cmax ([14]; multiple oral dose 20 mg): 380 nM
Permeability of pemigatinib (in words) [15]: high permeability
AUC0-t ([16]; oral, 4.5 mg): 0.674 ± 0.246 µM·h
AUC(0-inf) ([16]; oral, 4.5 mg): 0.712 ± 0.252 µM·h
Cmax ([16]; oral, 4.5 mg): 55.2 nM
Tmax ([16]; oral, 4.5 mg): 2 h
Vd/F ([16]; oral, 4.5 mg): 244 ± 75.8 L
half-life ([16]; oral, 4.5 mg): 11.8 h
AUC(0-inf) ([16]; oral, 13.5 mg): 2.04 ± 0.556 µM·h
Cmax ([16]; oral, 13.5 mg): 176 nM
Tmax ([16]; oral, 13.5 mg): 1.5 h
Vd/F ([16]; oral, 13.5 mg): 267 ± 73.1 L
half-life ([16]; oral, 13.5 mg): 12.7 h
AUC ([16]; po, 4.5 mg): 0.672 µM·h
Cmax ([16]; po, 4.5 mg): 60.1 ± 25.3 nM
Cmax ([16]; po, 13.5 mg): 187 ± 63.3 nM
Dry mouth TEAE, % [4, 20]: (11.1) %
Dry skin TEAE, % [4, 20]: (11.1) %
Headache TEAE, % [4, 20]: (16.7) %
Nausea TEAE, % [4, 20]: (5.6) %
Paraesthesia TEAE, % [4, 20]: (0) %
Rash papular TEAE, % [4, 20]: (11.1) %
Somnolence TEAE, % [4, 20]: (11.1) %
Vision blurred TEAE, % [4, 20]: (11.1) %
Most common TEAE ([4]; both cohorts): headache
Serious TEAEs or deaths ([4]; both cohorts): no serious TEAEs or deaths
TEAEs of grade 3 or higher ([4]; both cohorts): no TEAEs of grade 3 or high
Treatment discontinuations or dose interruptions due to TEAEs ([4]; both cohorts): no treatment discontinuations or dose interruptions due to TEAEs
Safety and tolerability (overall conclusion) [4]: safe and generally well tolerated
AUC0-t [5, 21]: 0.634 µM·h
AUC0-∞ [5, 21]: 0.672 µM·h
CL/F [5, 21]: 13.7 L/h
CL/F [5, 22]: 14.5 ± 4.55 L/h
t1/2 [5, 22]: 12.1 ± 2.74 h
AUC0-t [5, 17]: 1.9 µM·h
AUC0-∞ [5, 17]: 1.96 µM·h
CL/F [5, 17]: 14.1 L/h
AUC0-t [5, 18]: 1.98 ± 0.526 µM·h
CL/F [5, 18]: 14.8 ± 4.86 L/h
t1/2 [5, 18]: 12.9 ± 2.90 h
Tmax [5, 19]: 1.0 h
Oral clearance of pemigatinib (in words) ([5]; in vivo, po): low oral clearance
AUC Ratio, Observed [5, 23]: 1.88
Cmax Ratio, Observed [5, 23]: 1.17
Cmax ([5]; read-out: Observed Cmax, single oral 13.5 mg, geometric mean): 158 nM

Compound: O=c1c(O)c(-c2ccc(O)c(O)c2)oc2cc(O)cc(O)c12 [Quercetin]
Mean Percent of Pemigatinib Remaining After 30-Minute Incubation (N = 3) [2]: 77 ± 1%

Mean Percent of Pemigatinib Remaining After 30-Minute Incubation (N = 3) [2]: 70 ± 3%
Compound: Nc1ccc(S(=O)(=O)Nc2ccnn2-c2ccccc2)cc1 [Sulfaphenazole]
